Assay [1] relates to serum-deprived human neurons. Description: Aβ42/total Aβ and cytokine levels of serum-deprived human neurons. Format: cell-based. As to the method:
FIG. 13: VX-765 protects CNS primary human neurons (HPN) against APP- or serum deprivation-mediated neuritic beading. (a) MTT assay with increasing dose of VX-765. (b) Fluorescent micrographs showing homogeneous distribution of EGFP in normal neurons and neuritic beading in APP-transfected neurons. (c) Percentage beading in APP-transfected or serum-deprived neurons treated 1 h before and continuously with stressor (Pre-treatment) or 48 h after stressor (post-beading treatment) with 25 or 50 μM VX-765 or with 5 μM Z-YVAD-fmk Casp1 peptide inhibitor. […] (d-e) HPN secreted or cellular Aβ42/total Aβ38+40+42 (d) (F(3,4)=12.73, p=0.0163, ANOVA, Dunnett's post-hoc compared to Serum+DMSO, *p<0.05), and (e) levels of secreted II-1β, IFN-γ, TNF-α, and II-6 from untreated (+S), serum deprived (−S), or serum-deprived human neurons treated with 25 or 50 μM VX-765.

Assay [2] has as its system J20 mice. The assay is described as follows: Synaptophysin immunostaining and synaptic gene mRNA, treated symptomatic J20 mice. Format: in vivo, mouse. Particulars: hippocampus, immunohistochemistry, 50 mg/kg, 8 month old. The text has this:
FIG. 12: VX-765 reverses loss of synaptophysin immunohistological staining in J20 mice. (a) Immunohistological micrographs from pre-treated 5 month old J20 and 8 month old vehicle or VX-765 treated WT or J20 mouse hippocampus and cortex. (b) Quantitative analysis comparing synaptophysin immunostaining density between WT+Vehicle (n=4), J20+Vehicle (n=4), and J20+VX-765 (n=4) in the hippocampus (F(2,9)=7.974, p=0.0102, ANOVA, Tukey's post-hoc, * p<0.05) and cortex.
To assess AD-like pathology, immunohistochemical analyses were performed to detect amyloid deposition (anti-AβF25276)^5,6, microglial (Iba1) activation^7, astrogliosis (GFAP), synaptophysin protein levels on coronal brain sections. Multiplex MSD ELISA was used to assess Aβ levels and 38,40, and 42 subtypes, and II-1β brain levels. RT-PCR was used to assess levels of human APP^Sw/Ind.

Assay [3] relates to J20 mice. Description: Novel object recognition (NOR), treatment of symptomatic J20 mice. Format: in vivo, mouse. Particulars: for NOR behavior: 10 mg/kg; for NOR discrimination index: 25 mg/kg; for NOR deficit: 50 mg/kg IP. The text has this: (§1) FIG. 8: VX-765 treatment restores cognitive function in J20 mice. (a) Experimental paradigm. Intraperitoneal vehicle-injected wild type (WT+Vehicle; n=13) and J20 mice (J20+Vehicle: n=9), and VX-765-injected J20 mice (J20+VX-765: n=9) mice were behaviourally assessed at 5 different time-points: baseline before treatment (baseline untreated J20 were grouped together; n=18), after 3 IP injections/wk of VX-765 or vehicle (Treatment 1), after 6 additional injections over 2 weeks (Treatment 2), after 4-week Washout period, and after an additional 3 injections in one week (Treatment 3). Mice were sacrificed at 8 months of age after Treatment 3 (b) NOR Discrimination index (Treatment main effect, F(2,20)=85.8, p<0.0001; Time main effect, F(4,80)=4.188, p=0.0039; Treatment×Time interaction, F(8,80)=[…], two-way repeated-measures ANOVA, Dunnett's post-hoc compared to J20+Vehicle). (c) Distance traveled during Open Field task. Data analyzed by repeated measures two-way ANOVA (Treatment main effect, F(2,19)=11.47, p=0.0005; Treatment×Time interaction, F(8,76)=5.69, p<0.0001, two-way repeated-measures ANOVA, Dunnett's post-hoc compared to J20+Vehicle). (d-i) Barnes maze analysis. Learning acquisition (d,g), probe test primary latency and errors (e,h), and target hole preference (f,i); # of pokes of each hole labelled +1 to +9 to the right or −1 to −9 to the left of the target hole during the probe) after Treatment 2 (d-f) and Washout (g-i). Probe tests were analyzed (Treatment 2 primary latency, F(2,52)=5.879, p=0.0050; Treatment 2 primary errors, F(2,52)=9.998, p=0.0002; Washout primary latency, F(2,22)=4.076, p=0.0312; Washout primary errors, F(2,22)=10.84, p=0.0005, ANOVA, Tukey's post-hoc). * p<0.05, ***p<0.001, ****p<0.0001.
[…] The 20-week-old mice were treated per the paradigm in section. VX-765 reverses episodic memory deficits in the J20 mouse.
Anxiety and hyperactivity are monitored in an open-field paradigm, episodic memory with the NOR, spatial memory with the Barnes maze, and short or long term working memory with the Y maze before and after treatments. Repeated measures are acceptable for the NOR, Barnes and Y maze^2-4.
J20 and littermate WT mice (20 wks) were first tested for episodic memory deficits with Novel Object Recognition (NOR) and anxiety and hyperactivity in an open-field paradigm. […] The injections were continued for 2 weeks at 3 injections/week (48 hr intervals between injections and 3 day interval between weeks) and mice retested. […]

Assay [4] relates to J20 mice. Description: Open field hyperactivity, treatment of symptomatic J20 mice. Format: in vivo, mouse. Particulars: for hyperactivity in open field: Treatment 2; for hyperactivity, distance travelled in open field: 50 mg/kg IP.
Text: as §1
Anxiety and hyperactivity are monitored in an open-field paradigm, episodic memory with the NOR, spatial memory with the Barnes maze, and short or long term working memory with the Y maze before and after treatments. Repeated measures are acceptable for the NOR, Barnes and Y maze^2-4. […]

The structures appear in SMILES notation. “Also recorded” adds a separate entry of the source.

Take `CCO[C@@H]1OC(=O)C[C@@H]1NC(=O)[C@@H]1CCCN1C(=O)[C@@H](NC(=O)c1ccc(N)c(Cl)c1)C(C)(C)C` [VX-765, (S)-1-((S)-2-{[1-(4-amino-3-chloro-phenyl)-methanoyl]-amino}-3,3-dimethyl-butanoyl)-pyrrolidine-2-carboxylic acid ((2R,3S)-2-ethoxy-5-oxo-tetrahydro-furan-3-yl)-amide]: the “secreted and cellular Aβ42/total Aβ levels” value was “reduced secreted, but not cellular” in assay [1] (25 μM); “reduced secreted and cellular” in assay [1] (50 μM). The “levels of II-1β, IFN-γ, TNF-α, and II-6” value in assay [1] (25 and 50 μM, trend, not statistically significant) was “reduced at both concentrations”. In addition, the synaptophysin levels entry with J20 mice [2] is “increased synaptophysin levels; also recorded: significantly increased and returned to normal levels”. Moreover, the NOR behavior entry is reported as “normalized NOR behavior only after T2” in the assay with J20 mice [3] (Treatment 1 and 2); “reappeared after T3” in the assay with J20 mice [3] (Treatment 3); “washed out” with J20 mice [3] (washout). In addition, the NOR discrimination index result in the assay with J20 mice [3] (Treatment 1) is reported as “normalized”; with J20 mice [3] (Treatment 2), “normalized”; in the assay on J20 mice [3] (Treatment 3), “returned to normal at T3”; in the assay on J20 mice [3] (washout) it was “deficits reappeared after WO”. The NOR deficit result in the assay on J20 mice [3] (after 3 injections (Treatment 1)) was “reverted to normal; also recorded: reversed and reached near-normal levels”; in the assay on J20 mice [3] (after 3 more injections (Treatment 3)), “attenuated NOR deficits; also recorded: disappeared again after T3”; in the assay with J20 mice [3] (after 4-week washout), “NOR deficits reappeared; also recorded: reappeared after the WO period”; with J20 mice [3] (after additional 2 weeks of injections (Treatment 2)), “continued to perform normally; also recorded: reversed and reached near-normal levels”. In addition, the “hyperactivity in open field” value in the assay on J20 mice [4] (10 mg/kg) is listed as “non-significant improvement at T2 with 25, but not 10”; with J20 mice [4] (25 mg/kg), “non-significant improvement”. The “hyperactivity, distance travelled in open field” value in the assay with J20 mice [4] (Treatment 2 (3 weeks of treatment)) is “attenuated only after 3 weeks of treatment; also recorded: attenuated by VX-765 only after T2”; in the assay on J20 mice [4] (Treatment 3), “significantly reduced after T3”; in the assay on J20 mice [4] (after washout) it was “reappeared after WO”.
